Experimental data published in ChEMBL document CHEMBL5042488, “Synthesis, biological, and structural explorations of a series of μ-opioid receptor (MOR) agonists with high G protein signaling bias” (Eur J Med Chem, 2022).
Activity calls are given as the source filed them.

How the values were obtained:
[1] = target: T1, Mu-type opioid receptor (Homo sapiens, UniProt P35372); assay: Agonist activity at mu opioid receptor (unknown origin) assessed as beta arrestin-2 recruitment incubated for 3 days by PathHunter assay; format: functional
T1 sequence (P35372 whole entry): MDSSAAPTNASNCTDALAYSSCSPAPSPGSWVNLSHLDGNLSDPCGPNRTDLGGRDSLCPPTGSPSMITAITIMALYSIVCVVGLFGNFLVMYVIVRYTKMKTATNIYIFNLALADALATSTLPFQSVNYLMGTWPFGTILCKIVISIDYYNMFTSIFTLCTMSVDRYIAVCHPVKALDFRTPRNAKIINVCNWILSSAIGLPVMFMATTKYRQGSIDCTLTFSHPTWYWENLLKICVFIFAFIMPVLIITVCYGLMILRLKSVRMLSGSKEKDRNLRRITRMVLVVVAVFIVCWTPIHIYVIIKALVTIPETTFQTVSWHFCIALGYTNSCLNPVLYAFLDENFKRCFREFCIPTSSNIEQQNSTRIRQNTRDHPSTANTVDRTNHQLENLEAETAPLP

[2] = target: T1, Mu-type opioid receptor; assay: Agonist activity at mu opioid receptor (unknown origin) assessed as increase in cAMP level incubated for 40 mins by spectrophotometry; format: functional
[3] = Metabolic stability in human liver microsomes assessed as intrinsic clearance preincubated for 10 mins followed by NADPH addition and measured after 60 mins by LC-MS/MS analysis; format: ADME, Microsome; conditions: time 70 min, read-out: CLH
[4] = target: T1, Mu-type opioid receptor; assay: Agonist activity at mu opioid receptor (unknown origin) assessed as maximal cAMP level incubated for 40 mins by spectrophotometry relative to DAMGO; format: functional; conditions: filed as agonist
[5] = target: T1, Mu-type opioid receptor; assay: Agonist activity at mu opioid receptor (unknown origin) assessed as maximal beta arrestin-2 recruitment incubated for 3 days by PathHunter assay relative to DAMGO; format: functional; conditions: time 3.0 day
[6] = AUC(0 to infinity) in Sprague-Dawley rat at 2 mg/kg, iv by LC-MS/MS analysis; format: ADME, organism-based; parameters: route intravenous, time infinity, dose 2 mg/kg; conditions: in vivo
[7] = Plasma protein binding in dog plasma assessed as unbound fraction; format: ADME, cell-free, Canis lupus familiaris
[8] = Metabolic stability in dog liver microsomes assessed as intrinsic clearance preincubated for 10 mins followed by NADPH addition and measured after 60 mins by LC-MS/MS analysis; format: ADME, Canis lupus familiaris, Microsome; conditions: time 70 min, read-out: CLH
[9] = Toxicity in Sprague-Dawley rat model assessed as effect on blood oxygen levels at […], sc measured after 30 mins by blood gas analyzer; format: organism-based; conditions: in vivo, 0.5 h, dose 0.32 mg/kg
[10] = Apparent volume of distribution in Sprague-Dawley rat at 2 mg/kg, iv by LC-MS/MS analysis; format: ADME, organism-based; conditions: in vivo, read-out: Vz
[11] = Half life in Sprague-Dawley rat at 2 mg/kg, iv by LC-MS/MS analysis; format: ADME, organism-based; conditions: in vivo
[12] = Cmax in Sprague-Dawley rat at 2 mg/kg, iv by LC-MS/MS analysis; format: ADME, organism-based; parameters: route intravenous, dose 2 mg/kg; conditions: in vivo
[13] = Metabolic stability in rat liver microsomes assessed as intrinsic clearance preincubated for 10 mins followed by NADPH addition and measured after 60 mins by LC-MS/MS analysis; format: ADME, Microsome; conditions: time 70 min, read-out: CLH
[14] = system: Rattus norvegicus; assay: Antinociceptive activity in sc dosed Sprague-Dawley rat assessed as increase in thermal pain threshold measured after 30 mins by Hot-plate test; format: functional; conditions: 0.5 h
[15] = target: T1, Mu-type opioid receptor; assay: Displacement of [3H]-Diprenorphine from human mu opiod receptor expressed in CHO cells incubated for 1 hr by competition binding assay; format: cell-based
[16] = Half life of compound; format: physicochemical
[17] = Toxicity in Sprague-Dawley rat assessed as effect on respiration at 0.3 mg/kg, sc; format: organism-based; conditions: in vivo
[18] = target: Kappa-type opioid receptor (Homo sapiens, UniProt P41145); assay: Agonist activity at human kappa opioid receptor expressed in HEK293 assessed as increase in calcium mobilization incubated for 60 mins by FLIPR assay; format: functional, cell-based
Chain of Kappa-type opioid receptor (P41145 whole entry): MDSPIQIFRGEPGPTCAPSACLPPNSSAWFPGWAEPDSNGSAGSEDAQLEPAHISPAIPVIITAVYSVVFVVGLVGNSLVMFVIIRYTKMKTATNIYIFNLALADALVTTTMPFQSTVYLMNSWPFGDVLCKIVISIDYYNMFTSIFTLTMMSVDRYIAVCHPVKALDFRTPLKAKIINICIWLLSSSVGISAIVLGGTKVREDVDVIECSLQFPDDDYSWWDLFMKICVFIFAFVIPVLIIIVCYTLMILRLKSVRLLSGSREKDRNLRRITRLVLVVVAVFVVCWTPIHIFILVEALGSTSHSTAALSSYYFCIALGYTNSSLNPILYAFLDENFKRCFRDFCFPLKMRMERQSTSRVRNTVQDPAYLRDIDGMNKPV

[19] = target: Delta-type opioid receptor (Homo sapiens, UniProt P41143); assay: Agonist activity at human delta opioid receptor expressed in HEK293 assessed as increase in calcium mobilization incubated for 60 mins by FLIPR assay; format: functional, cell-based
Chain of Delta-type opioid receptor (P41143 whole entry): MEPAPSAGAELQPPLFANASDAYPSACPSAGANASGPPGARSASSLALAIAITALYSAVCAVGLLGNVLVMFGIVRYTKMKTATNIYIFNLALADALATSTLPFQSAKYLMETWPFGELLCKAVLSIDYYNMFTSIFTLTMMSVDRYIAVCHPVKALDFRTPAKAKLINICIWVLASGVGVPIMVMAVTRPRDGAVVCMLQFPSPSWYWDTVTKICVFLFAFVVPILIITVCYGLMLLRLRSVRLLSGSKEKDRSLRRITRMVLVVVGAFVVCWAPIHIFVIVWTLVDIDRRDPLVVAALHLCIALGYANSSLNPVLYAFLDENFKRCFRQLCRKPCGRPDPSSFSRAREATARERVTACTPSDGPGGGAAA

[20] = target: Cytochrome P450 2C19 (Homo sapiens, UniProt P33261); assay: Inhibition of CYP2C19 (unknown origin); format: ADME
Chain of Cytochrome P450 2C19 (P33261 whole entry): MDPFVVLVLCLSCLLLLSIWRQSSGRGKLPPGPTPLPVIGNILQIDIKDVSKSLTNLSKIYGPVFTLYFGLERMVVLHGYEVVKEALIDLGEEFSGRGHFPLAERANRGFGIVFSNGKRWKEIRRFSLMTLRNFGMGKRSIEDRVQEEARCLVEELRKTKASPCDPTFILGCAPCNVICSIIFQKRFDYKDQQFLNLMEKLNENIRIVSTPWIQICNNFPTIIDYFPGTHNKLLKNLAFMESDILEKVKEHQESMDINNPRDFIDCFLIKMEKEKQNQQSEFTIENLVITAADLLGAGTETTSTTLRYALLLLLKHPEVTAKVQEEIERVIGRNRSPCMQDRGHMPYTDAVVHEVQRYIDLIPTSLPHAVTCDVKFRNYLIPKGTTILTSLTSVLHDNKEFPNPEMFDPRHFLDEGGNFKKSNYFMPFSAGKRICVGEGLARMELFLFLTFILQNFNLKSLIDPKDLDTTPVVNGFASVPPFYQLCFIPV

[21] = Plasma protein binding in rat plasma assessed as unbound fraction; format: ADME, cell-free
[22] = target: T1, Mu-type opioid receptor; assay: Agonist activity at human mu opioid receptor expressed in HEK293 assessed as increase in calcium mobilization incubated for 60 mins by FLIPR assay; format: functional, cell-based
[23] = Drug concentration in Sprague-Dawley rat brain at […], iv measured after 5 mins by LC-MS/MS analysis; format: ADME, organism-based; conditions: dose 0.25 mg/kg, read-out: Drug uptake
[24] = MRT in Sprague-Dawley rat at 2 mg/kg, iv by LC-MS/MS analysis; format: ADME, organism-based; conditions: in vivo
[25] = Ratio of drug concentration in brain to plasma of Sprague-Dawley rat at 2 mg/kg, iv measured at […] by LC-MS/MS analysis; format: ADME, organism-based; conditions: time 0.25 hrs
[26] = system: Rattus norvegicus; assay: Antinociceptive activity in Sprague-Dawley rat assessed as increase in paw withdrawal latency at 0.3 mg/kg, sc measured after 30 mins by Hot-plate test; format: functional, organism-based
[27] = system: Rattus norvegicus; assay: Antinociceptive activity in Sprague-Dawley rat incision pain model assessed as increase in paw withdrawal latency at 0.125 to 0.5 mg/kg, sc measured after 30 mins by Von Frey filament assay; format: functional; conditions: dose 0.125-0.5 mg/kg
[28] = Apparent permeability across apical to basal membrane in human Caco-2 cells; format: ADME, cell-based
[29] = AUClast in Sprague-Dawley rat at 2 mg/kg, iv by LC-MS/MS analysis; format: ADME, organism-based; parameters: time 0 - last, route intravenous, dose 2 mg/kg; conditions: in vivo
[30] = Plasma protein binding in human plasma assessed as unbound fraction; format: ADME, cell-free
[31] = Drug concentration in Sprague-Dawley rat liver at […],iv measured after 30 mins by LC-MS/MS analysis; format: ADME, organism-based; conditions: in vivo, 0.5 h, dose 0.25 mg/kg
[32] = target: Cytochrome P450 2C9 (Homo sapiens, UniProt P11712); assay: Inhibition of CYP2C9 (unknown origin); format: ADME
Chain of Cytochrome P450 2C9 (P11712 whole entry): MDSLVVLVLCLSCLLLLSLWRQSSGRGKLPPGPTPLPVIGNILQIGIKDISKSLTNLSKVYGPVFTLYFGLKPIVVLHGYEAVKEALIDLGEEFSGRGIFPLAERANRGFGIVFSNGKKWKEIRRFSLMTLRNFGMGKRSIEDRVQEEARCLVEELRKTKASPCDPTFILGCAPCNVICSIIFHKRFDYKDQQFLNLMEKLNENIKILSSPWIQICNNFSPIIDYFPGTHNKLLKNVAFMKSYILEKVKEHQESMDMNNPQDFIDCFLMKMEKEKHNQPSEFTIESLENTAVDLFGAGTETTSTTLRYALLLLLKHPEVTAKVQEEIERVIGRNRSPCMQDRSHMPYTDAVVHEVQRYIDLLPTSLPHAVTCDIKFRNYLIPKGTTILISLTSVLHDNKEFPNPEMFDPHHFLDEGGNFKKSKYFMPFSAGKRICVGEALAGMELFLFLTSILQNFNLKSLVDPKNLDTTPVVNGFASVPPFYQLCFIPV

[33] = Toxicity in Sprague-Dawley rat assessed as effect on blood oxygen levels at 1.56 mg/kg, sc measured after 30 mins by blood gas analyzer; format: organism-based; conditions: in vivo, 0.5 h
[34] = system: Rattus norvegicus; assay: Antinociceptive activity in Sprague-Dawley rat assessed as increase in paw withdrawal latency at 1 mg/kg, sc measured after 30 mins by Hot-plate test; format: functional, organism-based

`Fc1ccc([C@]2(CCNCc3scc4c3CCC4)CCOC3(CCOC3)C2)cc1` (some centres not stated) gave an EC50 [1] greater than 30000 nM, an EC50 [2] of 0.07 nM and a CLint scaled [3] of 157 mL/min/kg.
In the case of `Fc1ccc(CNCC[C@@]2(c3ccccn3)CCOC3(CCOC3)C2)cc1Cl` (some centres not stated), the EC50 [1] is reported as greater than 30000 nM, the EC50 [2] is reported as 26.5 nM and the Emax [4] is reported as 92.3%.
Work on `C[C@@H](Cc1ccsc1)NC(=O)NC[C@H](Cc1ccc(O)cc1)N(C)C` yielded an Emax [5] of 5%, an Emax [4] of 89.2% and a CLint scaled [3] of less than 8.6 mL/min/kg.
Compound `Fc1ccc([C@]2(CCNCc3scc4c3COC4)CCOC3(CCOC3)C2)cc1` (some centres not stated) has an EC50 [1] greater than 30000 nM, an EC50 [2] of 6.8 nM and a CLint scaled [3] of 191 mL/min/kg.
`Cc1ccsc1CNCC[C@@]1(c2ccc(F)cc2)CCOC2(CCOC2)C1` (some centres not stated) gave an Emax [5] of 2.9%, an EC50 [1] greater than 30000 nM and an EC50 [2] of 4.1 nM. For the same compound, the Emax [4] was 61.2%.
With `c1ccc([C@]2(CCNCc3ccc4ccccc4c3)CCOC3(CCOC3)C2)nc1` (some centres not stated) the Emax [5] was 1.1%, the EC50 [1] was greater than 30000 nM and the EC50 [2] was 174 nM. It also gave an Emax [4] of 124%.
Compound `Cc1cc(C)cc(CNCC[C@@]2(c3ccccn3)CCOC3(CCOC3)C2)c1` (some centres not stated) has an Emax [5] of 4.6%, an EC50 [1] greater than 30000 nM and an EC50 [2] of 11.6 nM. For the same compound, the Emax [4] was 96.6%.
Compound `Fc1ccc([C@]2(CCNCc3scc4c3CCCC4)CCO[C@]3(CCOC3)C2)nc1` has an EC50 [1] greater than 30000 nM, an EC50 [2] of 0.2 nM and an Emax [4] of 99.5%. The CLint scaled [3] was 338 mL/min/kg.
With `c1ccc([C@]2(CCNCc3scc4c3COC4)CCOC3(CCCC3)C2)nc1` the Emax [5] was 4.4%, the EC50 [1] was 27 nM and the EC50 [2] was 2 nM. It also gave an Emax [4] of 90.5% and a CLint scaled [3] of 230 mL/min/kg.
For `COc1ccsc1CNCC[C@@]1(c2ccccn2)CCO[C@@]2(CCOC2)C1`, the EC50 [1] was greater than 30000 nM and the Emax [4] was 66.3%.
`Fc1ccc([C@]2(CCNCc3cccc(Cl)c3)CCO[C@]3(CCOC3)C2)nc1` gave an AUC [6] of 134.01 ng·h/mL, a fraction unbound [7] of 0.17 and a CLint scaled [8] of 152 mL/min/kg. It also gave an Activity [9] of 92.17%, an Emax [5] of 1.6% and a Vd [10] of 10.8 L/kg. It also gave a half-life [11] of 119 min, a Cmax [12] of 252 ng/mL and a CLint scaled [13] of 176 mL/min/kg. It also gave an ED50 [14] of 0.23 mg/kg, a Ki [15] of 0.514 nM and a half-life [16] of 7.16 min. For the same compound, the Activity [17] was “Non-Toxic”, the EC50 [18] was greater than 10000 nM and the EC50 [19] was greater than 10000 nM. For the same compound, the EC50 [2] was 0.35 nM, the IC50 [20] was greater than 33000 nM and the fraction unbound [21] was 0.33. For the same compound, the EC50 [22] was 5.09 nM, the concentration at 5 min [23] was 172 ng/g and the MRT [24] was 48.6 min. For the same compound, the Kp at […] [25] was 4.61, the Activity [26] was “Active” and the Activity [27] was 50%. It also gave a Papp A→B [28] of 5.2 ×10⁻⁶ cm/s, an AUC(0-t) [29] of 132 ng·h/mL and an Emax [4] of 91.4%. The fraction unbound [30] was 0.34 and the Drug uptake [31] was 58.6%.
In the case of `C[C@@H](NC(=O)[C@@H](N)Cc1ccc(O)cc1)C(=O)NCC(=O)N(C)[C@@H](Cc1ccccc1)C(=O)NCCO` [DAMGO], the half-life [16] is reported as 5.95 min.
`COc1ccsc1CNCC[C@@]1(c2ccccn2)CCOC2(CCCC2)C1` [OLICERIDINE] gave a fraction unbound [7] of 0.023, a CLint scaled [8] of 465 mL/min/kg and an Emax [5] of 4.6%. The IC50 [32] was greater than 50000 nM, the Vd [10] was 6.39 L/kg and the half-life [11] was 72.6 min. The Cmax [12] was 249 ng/mL, the CLint scaled [13] was 1110 mL/min/kg and the Activity [33] was 87.62%. The ED50 [14] was 0.85 mg/kg, the half-life [16] was 6.51 min and the EC50 [18] was greater than 10000 nM. The EC50 [19] was greater than 10000 nM, the IC50 [20] was greater than 50000 nM and the fraction unbound [21] was 0.36. The concentration at 5 min [23] was 64.8 ng/g, the MRT [24] was 49.2 min and the Activity [34] was “Active”. The Papp A→B [28] was 4.4 ×10⁻⁶ cm/s, the Emax [4] was 92.5% and the fraction unbound [30] was 0.22. For the same compound, the Drug uptake [31] was 23.8%.
